Entries after “also recorded” stand apart in the source; their conditions may differ.
Tests used:
human AChE = human AChE (Homo sapiens, UniProt P22303); test: AChE reversible inhibition (Ellman's method, Hunter–Downs evaluation); type: biochemical; conditions: for Ki: human erythrocyte AChE, ATCh substrate, 0.1 M sodium phosphate buffer pH 7.4, at least three experiments, read-out: Ki ± SE AChE; for Ki (AChE)/Ki (BChE): selectivity ratio of measured Ki values
Source text: The determined BChE phenotype was UU (usual).

[1] = Cytotoxicity assay (MTS) on SH-SY5Y cells; type: cell-based; conditions: human; SH-SY5Y cells, MTS assay, 6.25–800 µM, mean of at least three experiments with standard error
Experimental: (§1) SH-SY5Y were grown in DMEM F12 (Sigma-Aldrich, Steinheim, Germany) supplemented with 15% (v/v) fetal bovine serum (Sigma-Aldrich, Steinheim, Germany), 1% (v/v) non-essential amino acids (NEAA, Sigma-Aldrich, Steinheim, Germany) and 1% (v/v) antibiotics solution Penicilin-Streptomycin (Sigma-Aldrich, Steinheim, Germany) while HEK293 were grown in EMEM (Sigma-Aldrich, Steinheim, Germany) supplemented with 10% (v/v) fetal bovine serum (Sigma-Aldrich, Steinheim, Germany), 1% (v/v) non-essential amino acids (NEAA, Sigma-Aldrich, Steinheim, Germany) and 1% (v/v) antibiotics solution Penicilin-Streptomycin (Sigma-Aldrich, Steinheim, Germany).
(§2) After cultivation, the cells were detached using 0.25% Trypsin/EDTA solution (Sigma-Aldrich, St. Louis, MO, USA), re-suspended and seeded at density of 20,000 cells/well in 96-well plates for experiments. The assay in 96-well was performed in 120 µL/well media volume. […] The procedure followed a previously described protocol and the manufacturer’s recommendations. […] Data was evaluated from at least two or three experiments (each in duplicate or triplicate) using IC50 nonlinear fit equation predefined in Prism6 software and presented as percentage of inhibition to control untreated cells.

[2] = Cytotoxicity assay (MTS) on HEK293 cells; type: cell-based
Experimental: as §1, §2

human BChE = human BChE (Homo sapiens, UniProt P06276); test: BChE reversible inhibition (Ellman's method, Hunter–Downs evaluation)
SH-SY5Y cells = test: Cytotoxicity assay (MTS) on SH-SY5Y cells; type: cell-based; conditions: 1-, 4- and 24-h treatment
Experimental: as §1, §2

HEK293 cells = test: Cytotoxicity assay (MTS) on HEK293 cells; type: cell-based; conditions: for time dependence of cytotoxicity on HEK293 cells: 1-, 4- and 24-h treatment
Experimental: as §1, §2

phospho-AMPK (Thr172) = test: Intracellular signalling by Western blot: phospho-AMPK; type: cell-based, human; conditions: serum-starved HEK293 cells, 100 μM, 10 or 30 min, vs. Basal
Experimental: (§3) Intracellular signalling in the presence of the selected nicotinamide derivative was evaluated on HEK293 cells. To enhance attachment of HEK293 cells, 12-well plates were aseptically pre-coated with poly-lysin (50 µg/mL, 0.5 mL/well). After 1-h incubation, the solution was removed, surface rinsed with sterile demineralized water and allowed to dry for 1 h. HEK293 cells were seeded at a density of 300,000 cells/well in DMEM (1 g/L glucose, Gibco, Paisley, UK) supplemented with 10% (v/v) FBS (Gibco, Paisley, UK) and 1% (v/v) Pen-Strep (Gibco, Paisley, UK). The next day (after 20 h) the medium was replaced with DMEM without additions. The cells were serum-starved for 4 h. During the last 10 and 30 min, the cells were treated with 100 μM 3, 4, 5 or 8. Basal (control) samples were treated with vehicle (DMSO) for 30 min. At the end of the experiment, cells were washed with ice-cold PBS and lysed in Laemmli buffer (62.5 mM Tris-HCl (pH 6.8), 2% (w/v) sodium dodecyl sulfate (SDS), 10% (w/v) glycerol, 5% (v/v) 2-mercaptoethanol, 0.002% (w/v) bromophenol blue). The proteins were resolved with SDS-PAGE (precasted 4–12% polyacrylamide gels, Bio-Rad, CA, USA) and transferred to the PVDF membrane (Merck Millipore, Darmstadt, Germany) with wet electrotransfer using Criterion system and Bis-Tris gradient gels (Bio-rad, CA, USA). After the transfer, the membranes were stained with Ponceau S (0.1% (w/v) in 5% (v/v) acetic acid) to evaluate uniformity of sample loading and efficiency of transfer. The membranes were then blocked with 7.5% (w/v) dry milk in Tris-buffered saline with Tween 20 (TBST: 20 mM Tris, 150 mM NaCl, 0.02% (v/v) Tween 20, pH 7.5) for 1 h at room temperature. After blocking, the membranes were incubated with the primary antibody in the primary antibody buffer (20 mM Tris, 150 mM NaCl, pH 7.5, 0.1% (w/v) BSA and 0.1% (w/v) sodium azide) overnight at 4 °C and then with the secondary antibody-horseradish peroxidase conjugate (Bio-Rad, CA, USA) in TBST with 5% (w/v) dry milk for 1 h at room temperature. Finally, the membranes were incubated with enhanced chemiluminescence (ECL) reagent (Bio-Rad, CA, USA) and then immunolabelled proteins were visualized on X-ray films. Films were scanned with GS-800 Densitometer (Bio-Rad, CA, USA) and analysed with Quantity One 1-D 4.6.8 Analysis Software (Bio-Rad, CA, USA). […] Target proteins were detected using primary antibodies against phospho-Akt (Ser473, Cell Signaling #4060, Netherlands) phospho-ERK1/2 (Thr202/Tyr204, Cell Signaling #4370, Netherlands), phospho-S6 ribosomal protein (Ser235/236, Cell Signaling #2211, Netherlands), phospho-AMPK (Thr172, Cell Signaling #2535, Netherlands), phospho-acetyl-CoA carboxylase (Ser79, Cell Signaling #3661, Netherlands) and HIF-1α (Novus Biologicals NB100–449, CO, USA).

phospho-ACC (Ser79) = test: Intracellular signalling by Western blot: phospho-ACC; type: cell-based, human; conditions: serum-starved HEK293 cells, 100 μM, 10 or 30 min, vs. Basal
Experimental: as §3

phospho-Akt (Ser473) = test: Intracellular signalling by Western blot: phospho-Akt; type: cell-based, human; conditions: serum-starved HEK293 cells, 100 μM, 10 or 30 min, vs. Basal
Experimental: as §3

[3] = tested on: phospho-S6RP (Ser235/236); test: Intracellular signalling by Western blot: phospho-S6RP; type: cell-based, human; conditions: serum-starved HEK293 cells, 100 μM, 10 or 30 min, vs. Basal
Experimental: as §3

[4] = tested on: phospho-ERK1/2 (Thr202/Tyr204); test: Intracellular signalling by Western blot: phospho-ERK1/2; type: cell-based, human; conditions: serum-starved HEK293 cells, 100 μM, 10 or 30 min, vs. Basal
Experimental: as §3

HIF-1α = test: Intracellular signalling by Western blot: HIF-1α abundance; type: cell-based, human; conditions: serum-starved HEK293 cells, 100 μM, 10 or 30 min, vs. Basal
Experimental: as §3

AChE [5] = conditions: ratio of literature Ki values from [47], [48],[49]
AChE [6] = conditions: ref [47]; cited from earlier work
BChE = conditions: cited from earlier work
[7] = human, HEK293 cells, MTS assay, 6.25–800 µM, mean of at least three experiments with standard error

human BChE, sequence (P06276 29-602): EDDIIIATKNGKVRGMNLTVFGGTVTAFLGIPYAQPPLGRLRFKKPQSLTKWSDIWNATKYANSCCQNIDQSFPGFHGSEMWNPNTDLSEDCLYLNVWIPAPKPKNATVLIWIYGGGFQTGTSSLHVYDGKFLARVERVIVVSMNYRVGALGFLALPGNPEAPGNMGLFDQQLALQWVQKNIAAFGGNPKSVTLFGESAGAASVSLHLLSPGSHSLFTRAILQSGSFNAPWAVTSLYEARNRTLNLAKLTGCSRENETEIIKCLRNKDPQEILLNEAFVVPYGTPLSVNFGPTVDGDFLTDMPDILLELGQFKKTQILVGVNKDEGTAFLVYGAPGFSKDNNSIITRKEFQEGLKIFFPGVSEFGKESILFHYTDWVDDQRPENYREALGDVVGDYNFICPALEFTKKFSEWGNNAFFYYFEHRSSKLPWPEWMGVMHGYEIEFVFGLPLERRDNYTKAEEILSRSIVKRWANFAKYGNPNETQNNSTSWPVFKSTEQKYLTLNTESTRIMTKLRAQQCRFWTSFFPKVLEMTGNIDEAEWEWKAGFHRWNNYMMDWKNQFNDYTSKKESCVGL
human AChE, sequence (P22303 other isoform, or with tags, fused parts or gaps): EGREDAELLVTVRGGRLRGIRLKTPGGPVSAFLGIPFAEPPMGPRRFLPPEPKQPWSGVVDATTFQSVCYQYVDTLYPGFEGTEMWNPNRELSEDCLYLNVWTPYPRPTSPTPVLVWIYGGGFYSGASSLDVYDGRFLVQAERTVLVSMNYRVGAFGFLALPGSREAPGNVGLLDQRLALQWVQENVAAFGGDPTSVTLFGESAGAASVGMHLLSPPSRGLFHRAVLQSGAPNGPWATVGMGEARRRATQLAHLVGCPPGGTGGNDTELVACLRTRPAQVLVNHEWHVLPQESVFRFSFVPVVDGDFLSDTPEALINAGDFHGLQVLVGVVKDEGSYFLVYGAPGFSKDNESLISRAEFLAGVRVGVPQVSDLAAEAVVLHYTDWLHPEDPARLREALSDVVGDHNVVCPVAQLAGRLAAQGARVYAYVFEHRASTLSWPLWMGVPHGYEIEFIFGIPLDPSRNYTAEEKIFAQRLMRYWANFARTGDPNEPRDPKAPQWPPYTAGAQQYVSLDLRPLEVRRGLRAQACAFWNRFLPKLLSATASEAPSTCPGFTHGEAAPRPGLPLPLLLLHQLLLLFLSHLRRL

SMILES	Ki (human AChE)	Ki (AChE)/Ki (BChE) (human AChE)	IC50 [1]	IC50 [2, 7]	Ki (human BChE)	time dependence of cytotoxicity on SH-SY5Y cells (SH-SY5Y cells)	time dependence of cytotoxicity on HEK293 cells (HEK293 cells)	phosphorylation of AMPK (Thr172) (phospho-AMPK (Thr172))	phosphorylation of ACC (Ser79) (phospho-ACC (Ser79))	phosphorylation of Akt (Ser473) (phospho-Akt (Ser473))	phosphorylation of S6RP (Ser235/236) [3]	phosphorylation of ERK1/2 (Thr202/Tyr204) [4]	abundance of HIF-1α (HIF-1α)	Ki (AChE)/Ki (BChE) (AChE [5])	Ki (AChE [6])	Ki (BChE; ref [47])	IC50 (HEK293 cells; HEK293 cells, MTS assay, 6.25–800 µM, mean of at least three experiments with standard error)	IC50 (BChE; IC50 values per footnote 3, ref [50])	IC50 ([2]; human; HEK293 cells, MTS assay, 6.25–800 µM, mean of at least three experiments with standard error)	preference for binding to AChE over BChE (human AChE; selectivity from Ki values)
NC(=O)c1ccc[n+](CC(=O)c2ccccc2)c1 [Compound 1]	79 ± 11 µM	0.34	≥ 800 µM	≤ 800 µM	232 ± 20 µM															
NC(=O)c1ccc[n+](CC(=O)c2ccc([N+](=O)[O-])cc2)c1 [Compound 5]	39 ± 5 µM	0.27	214 ± 5 µM	417 ± 1 µM	145 ± 24 µM	time-dependent mechanism	time-dependent mechanism	markedly increased	markedly increased	markedly pronounced	decreased	reached statistical significance; also recorded: marked increase	unaltered							
NC(=O)c1ccc[n+](CC(=O)c2ccc(F)cc2)c1 [Compound 2]	85 ± 15 µM	0.14	≥ 800 µM	≥ 800 µM	595 ± 73 µM															
CCN(CC)C(C)CN1c2ccccc2Sc2ccccc21 (stereo not drawn) [Ethopropazine]														1010	161 µM	160 nM				
NC(=O)c1ccc[n+](CC(=O)c2ccc(Br)cc2)c1 [Compound 4]	11 ± 3 µM	0.23	501 ± 2 µM	~85 µM	47 ± 15 µM	time-dependent mechanism	time-dependent mechanism	did not respond	did not respond	suppressing	increased	tended to transiently increase	increased				83 ± 1 µM			
NC(=O)c1ccc[n+](CC(=O)c2ccc(-c3ccccc3)cc2)c1.[Br-] [Compound 8, 1-(4′-phenylphenacyl)-3-carbamoylpyridinium bromide]	4 ± 0.2 µM	0.50	257 ± 1 µM			time-dependent mechanism		not significantly altered	increased phosphorylation	markedly pronounced	unaltered	reached statistical significance; also recorded: marked increase	increased						155 ± 1 µM	
Cc1ccc(C(=O)C[n+]2cccc(C(N)=O)c2)cc1 [Compound 6]	3 ± 1 µM	0.01	≥ 800 µM	≤ 800 µM	242 ± 22 µM															up to 80 times
NC(=O)c1ccc[n+](CC(=O)c2ccc(Cl)cc2)c1 [Compound 3]	33 ± 5 µM	0.15	≤ 800 µM	~85 µM	224 ± 23 µM	time-dependent mechanism	time-dependent mechanism	did not respond	did not respond	suppressing	increased	tended to transiently increase	not statistically significant							
COc1ccc(C(=O)C[n+]2cccc(C(N)=O)c2)cc1 [Compound 7]	19 ± 2 µM	0.08	≥ 800 µM	≥ 800 µM	216 ± 34 µM															
COc1ccccc1C(=O)C[n+]1cccc(C(N)=O)c1 [Compound 9]	26 ± 4 µM	0.14	≥ 800 µM	≥ 800 µM	180 ± 18 µM															
